Assay results published in patent US20090311217A1, “3-SUBSTITUTED-1H-INDOLE COMPOUNDS, THEIR USE AS MTOR KINASE AND PI3 KINASE INHIBITORS, AND THEIR SYNTHESES” (priority 2008, published 2009).
Read-outs that look alike come from different tables or passages of the source.

Experiments:
Type in all cases: biochemical
PI3K-alpha = PI3K-alpha (Homo sapiens, UniProt P42336); assay: PI3K-alpha fluorescence polarization assay
PI3K-delta = PI3K-delta (Homo sapiens, UniProt O00329); assay: PI3K-delta fluorescence polarization assay; conditions: read-out: PI3Kδ Avg. IC50
human TOR = molecular target: T1, human TOR (Homo sapiens, UniProt P42345); assay: mTOR enzyme assay (DELFIA, His6-S6K substrate); conditions: read-out: mTOR Kinase Avg. IC50
T1 construct: FLAG

PI3K-gamma = PI3K-gamma (Homo sapiens, UniProt P48736); assay: PI3K-gamma fluorescence polarization assay
Outline: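 Reactions used 5 ng enzyme with 2.5 μM diC8-PI(4,5)P2 and 25 μM ATP in 5 mM HEPES pH 7, 2.5 mM MgCl2, run 1 h at 25° C. After an EDTA quench (10 mM), 100 nM GST-GRP1 PH domain and 5 nM BODIPY-TMR-IP4 were added and fluorescence polarization was read.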

PI3K-beta = PI3K-beta (Homo sapiens, UniProt P42338); assay: PI3K-beta fluorescence polarization assay; conditions: read-out: PI3Kβ Avg. IC50
Procedure: PI3K-Alpha, PI3K-Beta, PI3K-Gamma, and PI3K-delta Fluorescence Polarization Assay Protocols
PI3-Kinase reactions were performed in 5 mM HEPES, pH 7, 2.5 mM MgCl2, and 25 μM ATP, with diC8-PI(4,5)P2 (Echelon, Salt Lake City Utah) as substrate. Nunc 384-well black polypropylene fluorescent plates were used for PI3K assays. Reactions were quenched by the addition of EDTA to a final concentration of 10 mM. Final reaction volumes were 10 μl. For evaluation of PI3K inhibitors, 5 ng of enzyme (PI3K-alpha, beta, gamma, or delta) and 2.5 μM of substrate was used per […] reaction volume, and inhibitor concentrations ranged from 100 μM to 20 μM; the final level of DMSO in reactions never exceeded 2%. Reactions were allowed to proceed for one hour at 25° C. After 1 hour, GST-tagged GRP1 (general receptor for phosphoinositides) PH domain fusion protein was added to a final concentration of 100 nM, and BODIPY-TMRI(1,3,4,5)P4 (Echelon) was also added to a final concentration of 5 nM. Final sample volumes were 25 μl with a final DMSO concentration of 0.8%. Assay Plates were read on Perkin-Elmer Envision plate readers with appropriate filters for Tamra [BODIPY-TMRI(1,3,4,5)P4]. Data obtained were used to calculate enzymatic activity and enzyme inhibition by inhibitor compounds.

Sequence of PI3K-alpha (P42336 whole entry, species assumed): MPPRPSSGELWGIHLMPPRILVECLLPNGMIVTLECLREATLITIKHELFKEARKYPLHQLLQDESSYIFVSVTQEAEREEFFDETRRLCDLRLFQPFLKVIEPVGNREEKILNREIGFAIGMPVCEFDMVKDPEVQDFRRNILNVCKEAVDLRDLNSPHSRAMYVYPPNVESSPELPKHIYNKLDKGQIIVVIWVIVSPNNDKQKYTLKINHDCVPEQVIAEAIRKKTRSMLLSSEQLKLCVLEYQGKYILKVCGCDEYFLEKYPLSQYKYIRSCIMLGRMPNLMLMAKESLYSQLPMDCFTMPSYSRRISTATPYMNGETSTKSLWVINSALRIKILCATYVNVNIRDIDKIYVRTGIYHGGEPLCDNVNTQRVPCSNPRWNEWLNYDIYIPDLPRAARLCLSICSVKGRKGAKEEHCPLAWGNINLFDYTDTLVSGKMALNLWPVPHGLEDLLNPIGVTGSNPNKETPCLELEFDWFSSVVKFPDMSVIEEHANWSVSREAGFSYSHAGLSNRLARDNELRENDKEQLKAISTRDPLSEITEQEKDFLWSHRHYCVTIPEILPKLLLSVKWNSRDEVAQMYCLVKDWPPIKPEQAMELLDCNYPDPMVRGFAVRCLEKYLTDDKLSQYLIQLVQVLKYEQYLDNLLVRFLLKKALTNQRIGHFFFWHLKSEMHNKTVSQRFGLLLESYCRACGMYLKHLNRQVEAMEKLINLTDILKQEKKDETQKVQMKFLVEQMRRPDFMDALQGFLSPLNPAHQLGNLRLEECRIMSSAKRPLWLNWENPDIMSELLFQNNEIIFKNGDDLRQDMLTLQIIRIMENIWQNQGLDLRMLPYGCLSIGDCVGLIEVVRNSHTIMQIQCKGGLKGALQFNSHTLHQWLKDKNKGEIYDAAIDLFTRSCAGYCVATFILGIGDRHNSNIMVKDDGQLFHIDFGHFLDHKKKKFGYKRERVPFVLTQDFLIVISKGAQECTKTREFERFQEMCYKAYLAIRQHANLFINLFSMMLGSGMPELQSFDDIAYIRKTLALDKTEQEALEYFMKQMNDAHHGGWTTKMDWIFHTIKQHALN
Sequence of PI3K-alpha (P27986 whole entry partner, species assumed): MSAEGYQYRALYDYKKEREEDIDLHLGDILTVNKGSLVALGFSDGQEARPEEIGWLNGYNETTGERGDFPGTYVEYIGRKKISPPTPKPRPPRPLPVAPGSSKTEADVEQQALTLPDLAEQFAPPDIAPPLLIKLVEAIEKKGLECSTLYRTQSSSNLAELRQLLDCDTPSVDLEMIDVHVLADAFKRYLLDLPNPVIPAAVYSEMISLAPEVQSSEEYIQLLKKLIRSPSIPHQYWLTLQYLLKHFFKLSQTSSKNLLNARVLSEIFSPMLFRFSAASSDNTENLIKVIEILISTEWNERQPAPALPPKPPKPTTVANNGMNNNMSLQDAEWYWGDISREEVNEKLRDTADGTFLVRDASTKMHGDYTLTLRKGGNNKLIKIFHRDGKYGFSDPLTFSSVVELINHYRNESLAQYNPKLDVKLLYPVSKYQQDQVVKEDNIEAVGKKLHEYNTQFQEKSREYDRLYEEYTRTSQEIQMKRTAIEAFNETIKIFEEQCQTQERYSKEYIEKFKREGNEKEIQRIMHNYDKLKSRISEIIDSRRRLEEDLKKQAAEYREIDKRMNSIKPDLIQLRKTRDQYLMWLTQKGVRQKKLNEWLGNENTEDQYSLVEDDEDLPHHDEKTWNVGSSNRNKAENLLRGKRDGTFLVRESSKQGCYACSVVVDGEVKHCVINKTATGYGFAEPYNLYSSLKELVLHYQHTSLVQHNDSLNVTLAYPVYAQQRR
Sequence of PI3K-gamma (P48736 whole entry, species assumed, the tested form may be a part): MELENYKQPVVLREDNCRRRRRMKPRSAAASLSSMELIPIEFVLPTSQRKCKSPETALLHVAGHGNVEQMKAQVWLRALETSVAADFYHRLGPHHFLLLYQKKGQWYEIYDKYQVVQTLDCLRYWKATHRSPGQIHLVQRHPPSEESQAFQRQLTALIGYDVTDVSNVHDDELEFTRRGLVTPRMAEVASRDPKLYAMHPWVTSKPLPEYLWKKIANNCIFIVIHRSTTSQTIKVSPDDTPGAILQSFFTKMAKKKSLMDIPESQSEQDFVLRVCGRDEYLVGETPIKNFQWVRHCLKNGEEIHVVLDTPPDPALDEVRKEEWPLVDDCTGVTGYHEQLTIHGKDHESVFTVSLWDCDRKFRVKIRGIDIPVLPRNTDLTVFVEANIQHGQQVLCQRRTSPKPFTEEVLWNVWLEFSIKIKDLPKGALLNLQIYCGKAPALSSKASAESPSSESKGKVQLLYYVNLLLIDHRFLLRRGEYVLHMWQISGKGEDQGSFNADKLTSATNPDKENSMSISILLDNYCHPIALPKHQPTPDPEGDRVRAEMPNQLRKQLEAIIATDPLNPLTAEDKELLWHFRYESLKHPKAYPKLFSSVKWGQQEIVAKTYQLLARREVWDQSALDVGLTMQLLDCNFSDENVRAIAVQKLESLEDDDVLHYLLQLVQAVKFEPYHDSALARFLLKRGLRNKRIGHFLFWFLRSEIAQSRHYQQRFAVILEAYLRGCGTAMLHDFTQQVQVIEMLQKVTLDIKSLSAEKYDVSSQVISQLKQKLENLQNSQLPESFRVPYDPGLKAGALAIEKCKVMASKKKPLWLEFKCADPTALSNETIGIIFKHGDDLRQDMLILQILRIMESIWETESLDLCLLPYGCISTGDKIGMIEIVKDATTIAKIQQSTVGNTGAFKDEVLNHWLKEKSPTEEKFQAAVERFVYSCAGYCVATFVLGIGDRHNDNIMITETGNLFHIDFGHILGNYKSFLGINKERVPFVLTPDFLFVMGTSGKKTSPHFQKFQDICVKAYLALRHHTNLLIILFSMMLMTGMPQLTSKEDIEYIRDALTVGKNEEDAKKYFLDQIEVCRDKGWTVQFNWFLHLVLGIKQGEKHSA
Sequence of PI3K-delta (O00329 whole entry, species assumed): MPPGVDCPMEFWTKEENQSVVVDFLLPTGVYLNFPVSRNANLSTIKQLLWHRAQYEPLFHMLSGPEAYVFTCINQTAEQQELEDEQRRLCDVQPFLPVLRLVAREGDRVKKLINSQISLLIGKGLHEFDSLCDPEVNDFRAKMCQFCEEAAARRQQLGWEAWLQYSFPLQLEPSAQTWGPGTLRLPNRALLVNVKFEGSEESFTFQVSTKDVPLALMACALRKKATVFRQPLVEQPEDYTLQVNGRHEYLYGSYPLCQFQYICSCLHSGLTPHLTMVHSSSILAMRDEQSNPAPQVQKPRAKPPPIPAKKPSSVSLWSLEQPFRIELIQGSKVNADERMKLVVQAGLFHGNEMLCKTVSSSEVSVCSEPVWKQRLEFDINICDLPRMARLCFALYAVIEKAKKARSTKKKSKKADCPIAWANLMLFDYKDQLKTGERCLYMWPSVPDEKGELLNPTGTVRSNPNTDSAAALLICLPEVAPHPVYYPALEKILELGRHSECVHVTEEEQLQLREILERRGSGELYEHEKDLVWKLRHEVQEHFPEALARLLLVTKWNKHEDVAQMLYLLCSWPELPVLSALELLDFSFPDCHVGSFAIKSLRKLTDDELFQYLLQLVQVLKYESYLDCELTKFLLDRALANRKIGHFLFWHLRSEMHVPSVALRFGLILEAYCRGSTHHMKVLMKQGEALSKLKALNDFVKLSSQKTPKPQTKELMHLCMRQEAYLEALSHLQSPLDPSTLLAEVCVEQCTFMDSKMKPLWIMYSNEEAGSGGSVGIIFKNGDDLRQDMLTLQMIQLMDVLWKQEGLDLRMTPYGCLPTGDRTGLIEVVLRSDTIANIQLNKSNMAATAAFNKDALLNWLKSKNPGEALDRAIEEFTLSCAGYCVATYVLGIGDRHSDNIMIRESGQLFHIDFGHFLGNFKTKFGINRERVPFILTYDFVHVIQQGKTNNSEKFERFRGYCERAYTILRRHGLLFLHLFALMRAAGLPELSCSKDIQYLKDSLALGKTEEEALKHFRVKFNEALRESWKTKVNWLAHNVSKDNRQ
Sequence of PI3K-delta (P27986 whole entry partner, species assumed): as the sequence (P27986 whole entry partner, species assumed) above
Sequence of PI3K-beta (P42338 whole entry, species assumed): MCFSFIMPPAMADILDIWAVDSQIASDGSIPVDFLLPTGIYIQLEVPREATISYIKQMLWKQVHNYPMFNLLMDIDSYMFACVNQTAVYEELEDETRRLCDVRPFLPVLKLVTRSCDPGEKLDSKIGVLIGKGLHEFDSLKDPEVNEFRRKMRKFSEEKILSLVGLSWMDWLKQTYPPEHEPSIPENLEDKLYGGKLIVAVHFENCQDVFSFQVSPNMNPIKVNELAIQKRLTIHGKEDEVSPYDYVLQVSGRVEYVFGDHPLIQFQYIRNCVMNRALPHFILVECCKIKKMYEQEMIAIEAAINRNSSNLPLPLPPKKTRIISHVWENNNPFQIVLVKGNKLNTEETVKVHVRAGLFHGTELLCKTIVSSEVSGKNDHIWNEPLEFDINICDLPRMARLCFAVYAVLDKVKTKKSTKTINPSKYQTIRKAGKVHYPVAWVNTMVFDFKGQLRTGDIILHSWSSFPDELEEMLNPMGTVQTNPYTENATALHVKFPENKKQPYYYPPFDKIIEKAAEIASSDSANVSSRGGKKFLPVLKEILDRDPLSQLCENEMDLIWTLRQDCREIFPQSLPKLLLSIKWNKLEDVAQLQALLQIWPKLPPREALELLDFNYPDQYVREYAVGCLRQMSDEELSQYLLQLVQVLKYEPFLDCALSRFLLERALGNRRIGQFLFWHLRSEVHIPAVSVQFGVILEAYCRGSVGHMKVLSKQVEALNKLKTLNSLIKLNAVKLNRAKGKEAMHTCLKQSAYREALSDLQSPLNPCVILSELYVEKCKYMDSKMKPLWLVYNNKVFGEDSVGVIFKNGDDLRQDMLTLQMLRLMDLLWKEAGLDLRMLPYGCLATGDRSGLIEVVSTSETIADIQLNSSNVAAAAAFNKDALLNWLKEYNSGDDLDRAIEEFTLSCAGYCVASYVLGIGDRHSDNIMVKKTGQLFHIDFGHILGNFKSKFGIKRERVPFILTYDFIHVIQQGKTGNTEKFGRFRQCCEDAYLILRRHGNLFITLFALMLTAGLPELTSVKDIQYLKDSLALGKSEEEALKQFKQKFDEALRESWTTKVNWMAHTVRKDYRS
Sequence of PI3K-beta (P27986 whole entry partner, species assumed): as the sequence (P27986 whole entry partner, species assumed) above

| IC50 (PI3K-alpha; read-out: PI3Kα Avg. IC50) | IC50 (PI3K-delta) | IC50 (human TOR) | IC50 (PI3K-gamma; PI3Kγ Avg. IC50) | IC50 (PI3K-beta) | Compound | IC50 (PI3K-alpha; PI3Kα Avg. IC50) | IC50 (PI3K-gamma; read-out: PI3Kγ Avg. IC50) |
| --- | --- | --- | --- | --- | --- | --- | --- |
| 0.5 nM | 5 nM | 100 nM |  |  | COc1ccc2c(c1)c(/C=C1\Oc3ccc(NC(=O)Nc4ccc(C(=O)N5CCN(C)CC5)cc4)cc3C1=O)c(C)n2CCN1CCN(C)CC1 [Compound 618, 1-[(2Z)-2-({5-methoxy-2-methyl-1-[2-(4-methylpiperazin-1-yl)ethyl]-1H-indol-3-yl}methylene)-3-oxo-2,3-dihydro-1-benzofuran-5-yl]-3-{4-[(4-methylpiperazin-1-yl)carbonyl]phenyl}urea] |  |  |
| 0.2 nM | 2.5 nM | 38 nM |  |  | COc1ccc2c(c1)c(/C=C1\Oc3ccc(NC(=O)Nc4ccc(C(=O)N5CCN(C)CC5)cc4)cc3C1=O)c(C)n2CCO [Compound 619, 1-[(2Z)-2-{[1-(2-hydroxyethyl)-5-methoxy-2-methyl-1H-indol-3-yl]methylene}-3-oxo-2,3-dihydro-1-benzofuran-5-yl]-3-{4-[(4-methylpiperazin-1-yl)carbonyl]phenyl}urea] |  |  |
| 0.3 nM | 2 nM | 240 nM |  |  | CCn1c(C)c(/C=C2\Oc3ccc(NC(=O)Nc4ccc(C(=O)N5CCN(C)CC5)cc4)cc3C2=O)c2cc(OC)ccc21 [Compound 620, 1-{(2Z)-2-[(1-ethyl-5-methoxy-2-methyl-1H-indol-3-yl)methylene]-3-oxo-2,3-dihydro-1-benzofuran-5-yl}-3-{4-[(4-methylpiperazin-1-yl)carbonyl]phenyl}urea] |  |  |
| 0.6 nM | 4.5 nM |  | 4.65 nM | 28.5 nM | CNC(=O)Nc1ccc2c(c1)C(=O)/C(=C/c1c(-c3c(C)nn(C)c3C)[nH]c3ccc(OC)cc13)O2 [Compound 627, 1-[(2Z)-2-{[5-methoxy-2-(1,3,5-trimethyl-1H-pyrazol-4-yl)-1H-indol-3-yl]methylidene}-3-oxo-2,3-dihydro-1-benzofuran-5-yl]-3-methylurea] |  |  |
| 0.33 nM | 1.45 nM | 12 nM | 3.42 nM | 5 nM | CCn1c(C)c(/C=C2\Oc3ccc(NC(=O)Nc4ccc(C(=O)N(C)CCN(C)C)cc4)cc3C2=O)c2cc(OC)ccc21 [Compound 639, N-[2-(dimethylamino)ethyl]-4-[({(2Z)-2-[(1-ethyl-5-methoxy-2-methyl-1H-indol-3-yl)methylene]-3-oxo-2,3-dihydro-1-benzofuran-5-yl}carbamoyl)amino]-N-methylbenzamide] |  |  |
| 0.2 nM | 0.6 nM | < 1 nM | 2.35 nM | 0.7 nM | COc1cc(F)c2[nH]c(-c3c(C)nn(C)c3C)c(/C=C3\Oc4ccc(NC(=O)Nc5ccc(C(=O)N(C)CCN(C)C)cc5)cc4C3=O)c2c1 [Compound 710, N-[2-(dimethylamino)ethyl]-4-({[(2Z)-2-{[7-fluoro-5-methoxy-2-(1,3,5-trimethyl-1H-pyrazol-4-yl)-1H-indol-3-yl]methylidene}-3-oxo-2,3-dihydro-1-benzofuran-5-yl]carbamoyl}amino)-N-methylbenzamide] |  |  |
| 182 nM | 70.3 nM | > 30000 nM | 1470 nM | 132 nM | O=C1/C(=C/c2c(-c3ccccc3)[nH]c3ccccc23)Oc2c1ccc(O)c2O [Example 53, (2Z)-6,7-dihydroxy-2-[(2-phenyl-1H-indol-3-yl)methylene]-1-benzofuran-3(2H)-one] |  |  |
| 111 nM | 33.5 nM | 9600 nM | 1060 nM | 98 nM | O=C1/C(=C/c2c(-c3ccc(Cl)cc3)[nH]c3ccccc23)Oc2c1ccc(O)c2O [Example 54, (2Z)-2-{[2-(4-chlorophenyl)-1H-indol-3-yl]methylene}-6,7-dihydroxy-1-benzofuran-3(2H)-one] |  |  |
| 72.7 nM | 32 nM | 10000 nM | 716 nM | 72 nM | O=C1/C(=C/c2c(-c3ccc4ccccc4c3)[nH]c3ccccc23)Oc2c1ccc(O)c2O [Example 55, (2Z)-6,7-dihydroxy-2-{[2-(2-naphthyl)-1H-indol-3-yl]methylene}-1-benzofuran-3(2H)-one] |  |  |
| 190 nM | 108 nM | > 20000 nM | 1950 nM | 251 nM | O=C1/C(=C/c2c(-c3ccc(F)cc3)[nH]c3ccccc23)Oc2c1ccc(O)c2O [Example 56, (2Z)-2-{[2-(4-fluorophenyl)-1H-indol-3-yl]methylene}-6,7-dihydroxy-1-benzofuran-3(2H)-one] |  |  |
|  | 5.3 nM | < 30 nM | 13.4 nM | 26 nM | COc1ccc2[nH]c(-c3ccccc3)c(C=C3Oc4cc(O)cc(O)c4C3=O)c2c1 [Example 70, 4,6-dihydroxy-2-[(5-methoxy-2-phenyl-1H-indol-3-yl)methylene]-1-benzofuran-3(2H)-one] |  |  |
|  | 6 nM | < 24 nM | 142 nM | 72 nM | COc1ccc2c(c1)c(C=C1Oc3cc(O)cc(O)c3C1=O)c(C)n2CCCCCl [Example 87, 2-{[1-(4-chlorobutyl)-5-methoxy-2-methyl-1H-indol-3-yl]methylene}-4,6-dihydroxy-1-benzofuran-3(2H)-one] |  |  |
| 50.5 nM |  | 425 nM | 1790 nM |  | COc1ccc2c(c1)c(/C=C1\Oc3cc(O)cc(Cl)c3C1=O)c(C)n2CCN1CCN(C)CC1 [Example 467, (2Z)-4-Chloro-6-hydroxy-2-({5-methoxy-2-methyl-1-[2-(4-methylpiperazin-1-yl)ethyl]-1H-indol-3-yl}methylene)-1-benzofuran-3(2H)-one] |  |  |
| 48.5 nM |  | 2200 nM | 3200 nM |  | COc1ccc2c(c1)c(/C=C1\Oc3cc(O)cc(C)c3C1=O)c(C)n2CCCN(C)C [Example 468, (2Z)-2-({1-[3-(Dimethylamino)propyl]-5-methoxy-2-methyl-1H-indol-3-yl}methylene)-6-hydroxy-4-methyl-1-benzofuran-3(2H)-one] |  |  |
| 23.5 nM |  | 165 nM | 942 nM |  | COc1ccc2c(c1)c(/C=C1\Oc3cc(O)ccc3C1=O)c(-c1c(C)noc1C)n2CCN1CCN(C)CC1 [Example 469, (2Z)-2-({2-(3,5-Dimethylisoxazol-4-yl)-5-methoxy-1-[2-(4-methylpiperazin-1-yl)ethyl]-1H-indol-3-yl}methylene)-6-hydroxy-1-benzofuran-3(2H)-one] |  |  |
| 35.5 nM |  | 2300 nM | 656 nM |  | COc1ccc2c(c1)c(/C=C1\Oc3cc(O)ccc3C1=O)c(C)n2CCN1CCCCCC1 [Example 470, (2Z)-2-{[1-(2-Azepan-1-ylethyl)-5-methoxy-2-methyl-1H-indol-3-yl]methylene}-6-hydroxy-1-benzofuran-3(2H)-one] |  |  |

| Compound | IC50 (PI3K-alpha; read-out: PI3Kα Avg. IC50) | IC50 (PI3K-delta) | IC50 (human TOR) | IC50 (PI3K-gamma; PI3Kγ Avg. IC50) | IC50 (PI3K-beta) | IC50 (PI3K-alpha; PI3Kα Avg. IC50) | IC50 (PI3K-gamma; read-out: PI3Kγ Avg. IC50) |
| --- | --- | --- | --- | --- | --- | --- | --- |
| O=C1C(=Cc2c(-c3ccccc3)[nH]c3ccccc23)Oc2cc(O)cc(O)c21 [Example 14, 4,6-dihydroxy-2-[(2-phenyl-1H-indol-3-yl)methylene]-1-benzofuran-3(2H)-one] |  | 381 nM | 130 nM | 2780 nM | 736 nM | 1030 nM |  |
| O=C1/C(=C/c2c[nH]c3ccc(Br)cc23)Oc2cc(O)cc(O)c21 [Example 50, (2Z)-2-[(5-bromo-1H-indol-3-yl)methylene]-4,6-dihydroxy-1-benzofuran-3(2H)-one] |  | 387 nM | 3700 nM | 1620 nM | 358 nM | 422 nM |  |
| COc1ccc2c(c1)c(C=C1Oc3cc(O)cc(O)c3C1=O)c(C)n2CCN1CCN(C)CC1 [Example 108, 4,6-dihydroxy-2-({5-methoxy-2-methyl-1-[2-(4-methylpiperazin-1-yl)ethyl]-1H-indol-3-yl}methylene)-1-benzofuran-3(2H)-one] |  |  | < 34 nM | 474 nM | 7.5 nM | 5 nM |  |
| COc1ccc2c(c1)c(/C=C1\Oc3cc(O)cc(O)c3C1=O)c(C)n2CCN1CCN(C)CC1 [Example 309, (2Z)-4,6-Dihydroxy-2-({5-methoxy-2-methyl-1-[2-(4-methylpiperazin-1-yl)ethyl]-1H-indol-3-yl}methylene)-1-benzofuran-3(2H)-one] | 2 nM |  | < 27 nM | 268 nM | 6.5 nM |  |  |
| (2Z)-2-[(4-Bromo-1-methyl-1H-indol-3-yl)methylene]-4,6-dimethoxybenzofuran-3(2H)-one [Example 408] | 3310 nM |  | > 20000 nM |  |  |  | 1940 nM |
